Assay results from patent publication US7001611B2, “Compositions normalizing circadian rhythm” (Suntory Limited, priority 2000, dated 2006).
Entries after “also recorded” stand apart in the source; their conditions may differ.

How the values were obtained:
Wistar rats = assay: Circadian rhythm measuring method: amount of daily (spontaneous) movements of rats counted with an infrared sensor under a 12-hour light / 12-hour dark cycle; assay type: in vivo, rat; conditions: for ratio of activity in the light period to the total amount of movements (averages): Example 2, vs control group, astaxanthin diet, melatonin water (about 1 mg/day) or both, FIG. 5; for enhancive effect on the circadian rhythm normalizing action of melatonin: Example 3
Description: To search for a substance having the action of normalizing the circadian rhythm, the inventors of the present invention conducted studies on various substances with the use of a circadian rhythm measuring method, with the amount of spontaneous movement of rats as an indicator, in an environment controlled to have a 12-hour light period and a 12-hour dark period. As a result, the inventors have clarified that astaxanthin, which is one of carotenoids, and/or its ester has a circadian rhythm normalizing action. […] These findings led them to accomplish the present invention. The influence of astaxanthin on daily movements was investigated in rats. Rats have the habit of resting (sleeping) mainly in the light period, and acting in the dark period. The circadian rhythm of rats was investigated by measuring the amount of daily movements continuously, and examining changes over time in the amounts of movements in the light period and the dark period. Four-week-old male Wistar rats (purchased from Nippon […]) were preliminarily reared for one week, and subjected to experiments at the age of 5 weeks. The rats were randomly divided into two groups (5 to 6 rats/group), and one of the groups was used as a control diet (low tocopherol) group, while the other group was used as an astaxanthin diet group, each group receiving the designated diet for 4 weeks. The animals were reared in animal cages kept at room temperature of 23.5±1° C. and a humidity of 55±5%, and the feed and water were provided ad libitum. Astaxanthin used was astaxanthin extracted from […] purified (an oil containing 15% of astaxanthin as a free compound; a product of Itano Refrigerating Co.). The rats were individually reared in a box equipped with an infrared sensor, and the amount of movements was counted with the infrared sensor. That is, each time the animal passed the infrared sensor, the passage was taken as one count. The counts taken were accumulated, and expressed as the amount of movements (counts). Statistical treatment was performed using ANOVA and student t-test. A period of 1 week after start of rearing with the experimental diet was set as a tuning period in which the animal was tuned to a 12-hour dark period and a 12-hour light period. Then, from the 2nd week, the amount of daily movements was continuously measured for 3 weeks. The total amount of movements, and the ratio of movements in the light period to the total amount of movements (i.e., the amount of movements in the light period/the total amount of movements×100 (%)) were calculated every day. […] The averages of the ratio (%) of movements in the light period were compared in both groups (FIG. 3). […] Four-week-old male Wistar rats (purchased from Nippon […]) were preliminarily reared for one week, and subjected to experiments at the age of 5 weeks. The rats were randomly divided into two groups (10 to 11 rats/group), and the two groups were given a control diet (low tocopherol diet) and an astaxanthin diet (Table 1), respectively. Each group was further divided into two groups (5 to 6 rats/group), which received distilled water and melatonin water, respectively, for 4 weeks. The animals were reared in animal cages kept at room temperature of 23.5±1° C. and a humidity of 55±5%, and the feed and water were provided ad libitum. Melatonin was dissolved in water at a concentration of 0.5 mg/100 ml, and the solution was given ad lib, as drinking water. The intake of melatonin, calculated from the amount of water taken by rats, was about 1 mg/day. After start of rearing with the experimental diet, a tuning period of 1 week was provided. Then, the amount of movements of rats was measured as in Example 1 for 3 weeks to look into changes in the circadian rhythm. No differences were noted among the averages of the total amount of movements in the respective groups (FIG. 4). […]

[1] = Yamashita 1992; cited from earlier work
[2] = system: lipid peroxides in the brain; conditions: dose 1/100 the dose of α-tocopherol; Nishigaki et al. 1994; cited from earlier work
[3] = Example 4, tocopherol-deficient basic feed, FIG. 9

Structure (SMILES) | total amount of movements (day-to-day changes) (Wistar rats; Example 1, astaxanthin diet (0.3 g/kg of oil containing 15% astaxanthin) vs control low tocopherol diet, 3 weeks, FIG. 1) | average of the ratio (%) of movements in the light period (Wistar rats; Example 1, astaxanthin diet group vs control, FIG. 3) | ratio of movements in the light period to the total amount of movements (day-to-day changes) (Wistar rats; Example 1, astaxanthin diet vs control low tocopherol diet, 3 weeks, FIG. 2) | ratio of activity in the light period to the total amount of movements (averages) (Wistar rats) | enhancive effect on the circadian rhythm normalizing action of melatonin (Wistar rats; 0.0045% astaxanthin diet with melatonin water, FIG. 8) | total amount of movements (Wistar rats; Example 4, maximum dose of 1.5 g/kg diet, tocopherol-deficient basic feed, FIG. 10) | doses at which the decrease of the ratio of activity in the light period was significant (Wistar rats; [3]) [g/kg diet] | minimum dose at which the ratio of activity in the light period decreased (Wistar rats; [3]) [g/kg diet] | ratio of activity in the light period to the total amount of movements (dose dependency) (Wistar rats; Example 4, tocopherol-deficient basic feed, astaxanthin diets 0.15, 0.3, 0.6, 1.5 g/kg, FIG. 9) | antioxidant action compared with α-tocopherol [1] | increases in lipid peroxides in the brain caused by irradiation with 60Co [2] | enhancive effect on the circadian rhythm normalizing action of melatonin (Wistar rats; 0.001% tocopherol diet with melatonin water, FIG. 6) | enhancive effect on the circadian rhythm normalizing action of melatonin (Wistar rats; 0.005% tocopherol diet with melatonin water, FIG. 7) | enhancive effect on the circadian rhythm normalizing action of melatonin (Wistar rats; 0.005% tocopherol diet with melatonin water, FIG. 7, listed as tocopherol)
CC1=C(/C=C/C(C)=C/C=C/C(C)=C/C=C/C=C(C)/C=C/C=C(C)/C=C/C2=C(C)C(=O)[C@@H](O)CC2(C)C)C(C)(C)C[C@H](O)C1=O [Astaxanthin, astaxanthin] | did not affect the total amount of movements | significant decrease in the ratio of movements in the light period | lowered the ratio of movements in the light period | tendency toward a decrease in the ratio of activity in the light period | enhance the circadian rhythm normalizing action of melatonin significantly; also recorded: more potent effect of enhancing the circadian rhythm normalizing action of melatonin than does α-tocopherol | tended to increase | ≥ 0.3 | 0.15 | decreased in an astaxanthin concentration-dependent manner | more potent than that of α-tocopherol | can suppress increases in lipid peroxides in the brain | – | – | –
COc1ccc2[nH]cc(CCNC(C)=O)c2c1 [melatonin, reference compound] | – | – | – | tendency toward a decrease in the ratio of activity in the light period | – | – | – | – | – | – | – | – | – | –
Cc1c(C)c2c(c(C)c1O)CC[C@@](C)(CCC[C@H](C)CCC[C@H](C)CCCC(C)C)O2 [α-tocopherol, reference compound] | – | – | – | – | – | – | – | – | – | – | – | no effect of enhancing the circadian rhythm normalizing action of melatonin | no effect of enhancing the circadian rhythm normalizing action of melatonin | slight enhancive effect
